How the values were obtained:
human androgen receptor [1] = target: T1, human androgen receptor (Homo sapiens, UniProt P10275); experiment: cell-based
T1 construct: expressed in transfected cells; host or cells: Chinese hamster ovary (CHO) cells, cell line CHO-AR-pMMTV-LUC 1G12-A5-CA
T1 sequence (P10275 1-920): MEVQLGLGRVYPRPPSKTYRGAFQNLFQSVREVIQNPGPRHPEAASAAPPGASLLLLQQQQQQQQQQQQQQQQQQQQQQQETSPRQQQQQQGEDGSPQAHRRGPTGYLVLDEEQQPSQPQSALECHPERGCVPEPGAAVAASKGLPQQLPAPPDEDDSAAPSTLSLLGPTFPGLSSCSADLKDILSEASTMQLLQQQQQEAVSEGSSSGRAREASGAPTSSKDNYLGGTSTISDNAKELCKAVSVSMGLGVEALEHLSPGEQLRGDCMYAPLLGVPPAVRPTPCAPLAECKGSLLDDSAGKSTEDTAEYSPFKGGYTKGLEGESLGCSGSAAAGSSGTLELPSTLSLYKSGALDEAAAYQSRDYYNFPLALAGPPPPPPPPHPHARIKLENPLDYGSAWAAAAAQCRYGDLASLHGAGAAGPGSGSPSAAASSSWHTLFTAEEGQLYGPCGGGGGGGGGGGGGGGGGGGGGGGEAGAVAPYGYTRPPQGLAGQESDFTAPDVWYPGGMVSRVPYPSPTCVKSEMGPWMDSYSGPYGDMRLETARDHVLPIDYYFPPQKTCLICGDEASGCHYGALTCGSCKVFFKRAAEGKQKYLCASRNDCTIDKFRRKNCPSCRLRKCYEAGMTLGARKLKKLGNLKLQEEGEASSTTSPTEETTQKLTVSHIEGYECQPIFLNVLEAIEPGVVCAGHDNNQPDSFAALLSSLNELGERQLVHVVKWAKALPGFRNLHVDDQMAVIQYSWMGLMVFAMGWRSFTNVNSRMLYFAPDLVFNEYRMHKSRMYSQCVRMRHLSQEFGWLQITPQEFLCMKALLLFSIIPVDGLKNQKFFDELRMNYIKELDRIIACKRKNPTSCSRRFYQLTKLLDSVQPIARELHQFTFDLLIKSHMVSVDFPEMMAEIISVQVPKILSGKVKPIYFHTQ
Procedure: (§1) Compounds were tested for their Androgen Receptor activity in a transactivation assay and in a binding assay.
(§2) The (anti-)androgenic activity of test compounds (EC50 and intrinsic activity) was determined in an in vitro bioassay of Chinese hamster ovary (CHO) cells stably transfected with the human androgen receptor expression plasmid and a reporter plasmid in which the MMTV-promoter is linked to the luciferase reporter gene. The cell-line CHO-AR-pMMTV-LUC 1G12-AS-CA is described in Schoonen et al. (2000), Journal of Steroid Biochemistry and Molecular Biology 74(4):213-222. The antiandrogenic activity of a test compound was determined by the inhibition of the transactivation via the androgen receptor of the enzyme luciferase in the presence of 1 nM DHT (5 α-dihydrotestosterone, 17β-hydroxy-5α-androstan-3-one). Intrinsic activity of antiandrogenic activity was determined in the presence of the reference antiandrogen 2-Hydroxy-2-methyl-N-(4-nitro-3-trifluoromethyl-phenyl)-propionamide (Hydroxyflutamide), and set at 100%. For androgenic activity, maximal intrinsic activity in the presence of 100 nM DHT was set at 100%. Table 4 Androgen receptor activity

human androgen receptor [2] = target: T1, human androgen receptor; experiment: Androgen receptor transactivation assay, antiandrogenic activity: inhibition of transactivation in the presence of 1 nM DHT (CHO-AR-pMMTV-LUC cells; Table 4); format: cell-based; details: for Emax: intrinsic activity relative to reference antiandrogen Hydroxyflutamide (set at 100%); for EC50: antiandrogenic activity, read-out: ant EC50
Procedure: as §1, §2

[3] = system: cytoplasmic human androgen receptor; experiment: Competitive binding to cytoplasmic human androgen receptor from recombinant CHO cells (relative binding affinity); details: relative to DHT; cytosol of CHO-AR-pMMTV-LUC 1G12-A5-CA cells
Text: Determination of competitive binding to cytoplasmic human androgen receptor from recombinant CHO cells is used to estimate the relative binding affinity (RBA) of a test compound for androgen receptors present in the cytosol prepared of the recombinant CHO cell-line, CHO-AR-pMMTV-LUC 1G12-A5-CA.

human androgen receptor [4] = target: T1, human androgen receptor; experiment: Androgen receptor transactivation assay, androgenic activity in the presence of 0.1 µmol/l onapristone (CHO-AR-pMMTV-LUC cells; Table 5); format: cell-based; details: for ago efficacy: maximal intrinsic activity in the presence of 100 nM DHT set at 1.00; for ago potency: potency expressed as percentage of DHT activity
Procedure: The androgenic activity (EC50, potency, and efficacy) of the compounds in Table 5 was determined in an in vitro bioassay of Chinese hamster ovary (CHO) cells stably transfected with the human androgen receptor expression plasmid and a reporter plasmid in which the MMTV promotor is linked to the luciferase reporter gene. The cell line CHO-AR-pMMTV-LUC 1G12-A5-CA is described in Schoonen et al. (J. Steroid Biochem. Molec. Biol. […]; 74: 213-222). The androgen receptor activity of compounds was determined in the presence of 0.1 µmol/l onapristone. The maximal efficacy in the presence of 100 nmol/l DHT was set as 100%. The potencies are expressed as percentage of DHT activity. Table 5 Androgen receptor activity

[5] = androgenic activity, CHO-AR-pMMTV-LUC cells, read-out: ago EC50
[6] = in the presence of 1 nM DHT, read-out: ant efficacy

In the case of COc1ccc2c(Sc3ccccc3C(N)=O)cn(Cc3cc(F)cc(F)c3)c2c1 [Compound 18, 2-[1-(3,5-Difluoro-benzyl)-6-methoxy-1H-indol-3-ylsulfanyl]-benzamide], the EC50 (human androgen receptor [1]; [5]) is reported as greater than 10000 nM and the Emax (human androgen receptor [2]; read-out: ant efficacy, in the presence of 1 nM DHT) is reported as 20 to 50%.

In the case of COc1ccc2c(Sc3ccccc3OC)cn(Cc3cc(F)cc(F)c3)c2c1 [Compound 21], the EC50 (human androgen receptor [1]; [5]) is reported as 5 to 100 nM, the EC50 (human androgen receptor [2]; in the presence of 1 nM DHT) is reported as greater than 10000 nM and the Emax (human androgen receptor [2]; [6]) is reported as less than 20%.

Compound O=[N+]([O-])c1ccccc1Sc1cn(Cc2cc(F)cc(F)c2)c2cccc(F)c12 [Compound 51] has an EC50 (human androgen receptor [1]) of 5 to 100 nM and an Emax (human androgen receptor [2]; [6]) of less than 20%.

In the case of O=[N+]([O-])c1ccccc1Sc1cn(Cc2cc(F)cc(F)c2)c2ccccc12 [Compound 52], the EC50 (human androgen receptor [1]) is reported as less than 5 nM and the Emax (human androgen receptor [2]; [6]) is reported as less than 20%.

O=[N+]([O-])c1ccccc1Sc1cn(Cc2cc(F)cc(F)c2)c2ccc(O)cc12 [Compound 56] gave an Emax (human androgen receptor [1]; maximal intrinsic activity in the presence of 100 nM DHT set at 1.00, read-out: ago efficacy) of less than 20%, an EC50 (human androgen receptor [2]; in the presence of 1 nM DHT) greater than 10000 nM and an Emax (human androgen receptor [2]; [6]) of less than 20%.

COc1ccc2c(Sc3ccccc3[N+](=O)[O-])cn(Cc3ccccc3)c2c1 [Compound 92] was tested, and the Emax (human androgen receptor [2]; [6]) was less than 20% and the “relative binding affinity (RBA)” value [3] was greater than 1%.

In the case of N#Cc1ccc2c(Sc3ccccc3[N+](=O)[O-])cn(Cc3ccncn3)c2c1 [Compound 124, 3-(2-Nitro-phenylsulfanyl)-1-pyrimidin-4-ylmethyl-1H-indole-6-carbonitrile], the ago efficacy (human androgen receptor [4]) is reported as “++ (≥0.80)” and the ago potency (human androgen receptor [4]) is reported as “++ (>5%)”.

N#Cc1cccc(Cn2cc(Sc3ccccc3[N+](=O)[O-])c3ccc(C#N)cc32)c1 [Compound 125, 1-(3-Cyano-benzyl)-3-(2-nitro-phenylsulfanyl)-1H-indole-6-carbonitrile] was tested, and the ago efficacy (human androgen receptor [4]) was “++ (≥0.80)” and the ago potency (human androgen receptor [4]) was “+ (between 1% and 5%)”.
